Patent US20110130355A1, “USE OF SOPHORICOSIDE IN THE MANUFACTURE OF MEDICAMENTS” (priority 2008, published 2011)
Marks after values point to notes of the source that are not given here.

Key:
Format in all cases: in vivo, SD rats
[1] = system: ER-α; test: Immunohistochemical staining of the estrogen receptor of articular chondrocytes, percentage of positive cells; conditions: OVX rats, 11 weeks; for ER-α positive cells in the articular cartilage, micrograph in words: FIG. 7; for positive ratio for ER-α expression in the articular chondrocytes, Total: whole knee joint
Protocol: 2) Elimination of endogenous peroxidases: The sections were treated with 3% H2O2-methanol for 10 minutes and washed by PBS for 5 minutes×3;
3) Blocking of Antigen: The sections were treated with 0.3% bovine serum albumin (BSA) for 30 minutes;
The sections were incubated at 4° C. overnight and then washed by PBS for 5 minutes×3;
5) Secondary antibody: After the addition of the biotinylated secondary antibody (1:200) the sections were incubated at 37° C. for 30 minutes and then washed by PBS for 5 minutes×3;
6) Addition of SABC (Streptavidin Biotin Complex): After the addition of SABC (1:300) the sections were incubated at 37° C. for 30 minutes and then washed by PBS for 5 minutes×3;
7) Visualization: 75 μl of 3,3′-diaminobenzidine (DAB) was added per section. After incubation for 3-6 minutes, the sections were observed by microscopy;
The average of the percentages for the four regions was regarded as the total positive cell percentage for the indicated knee joint, and the average of the percentages obtained from two persons was regarded as the final experimental result.
The positive cell percentage=number of the positive chondrocytes in the field/total number of the chondrocytes in the field×100%.

[2] = Body weights of rats before and after the treatments; conditions: OVX rats, after treatment (11 weeks)
Protocol: OVX group and the intervention groups: The rats were anesthetized by intraperitoneal injection of 1% pentobarbital sodium at 5 ml/kg. After the onset of anesthesia, the rats were positioned face-down and dehaired at the third lumbar vertebra below the costal arch. The skin was sanitized by benzalkonium bromide and incised by about 1 cm. The subcutaneous tissue and the fascia were incised, and the muscle was bluntly separated. The peritoneum was carefully cut open. White fat was lifted carefully by using tissue forceps inserted to the abdominal cavity through the incision. The fat was gently turned over to expose the quincuncial ovary, which was then ligated by sterile 1 silk thread. The ovary was separated by cutting the oviduct by ophthalmic scissors. After hemostasis by compression, the fat was returned into the abdominal cavity. Subsequently, an incision was made on the opposite side and the same procedures were carried out to excise the ovary on the opposite side. The peritoneum, the fascia, the subcutaneous tissue, and the skin were sutured one by one. The incisions were sanitized. The rats were raised in the clean SPF animal chamber in the Animal Experimental Center of the Shanghai Institutes for Biological Sciences, CAS, with temperature maintained at 24° C., humidity maintained at 40˜60%, and a diurnal rhythm of 12 h/12 h. The rats were supplied with normal food and purified water ad libitum. The vehicle was 1% sodium carboxymethylcellulose (CMC-Na). The sham group and OVX group were administered the vehicle by gavage. Intervention groups were administered the following formulations of active agents dissolved in the vehicle: The rats were sacrificed by cervical dislocation after 11 weeks. Uteri were removed, weighted, and fixed in 4% paraformaldehyde (PFA). The whole right knee joints were removed and fixed in 4% PFA. The rats were weighted, and then sacrificed. The uteri were removed from the rats and determined for wet weights.

[3] = system: articular cartilage of the knee joint; test: Articular surface lesions of the knee joint (toluidine blue staining, image analysis); conditions: OVX rats, 11 weeks; for lesion percentage for the articular surface, total: whole knee joint
Protocol: 1. The Pathological Sections of the Knee Joints of Rats
1) The knee joints of rats were fixed in 4% PFA for 48 hours;
2) The samples were decalcified in 15% ethylenediamine tetraacetic acid (EDTA) for 15 days;
The coronal sections were sectioned by a paraffin microtome (Leica, Model: RM2235) at thickness of 5 μm with the medial collateral ligament being used as a marker. The sections were transferred into warm water at 30° C., and plated on slides pre-treated with polylysine. The slides were transferred to an incubator at 65° C. for 3 hours and stored at ambient condition until use.
2) Staining: The sections were stained in 1% Ammonia Toluene blue for 5 minutes and rinsed with water for 10 minutes;
The lesion lengths in the four weight-bearing articular cartilage surface lesion regions of medial and lateral femoral condyles and medial and lateral tibial plateaus were measured with Axioplan 2 microscopy imaging analysis system (Axioplan 2 multifunctional automatic fluorescent microscope, KS400 imaging analysis system Ver. 3.0, AxioCam digital camera at a resolution of 3900×3090) by two independent persons skilled in the imaging art (FIGS. 3A and 3B). The results were averaged. The lesion percentage for each of the four articular surfaces was calculated. Finally the total lesion percentage for the knee joint was calculated as:
The lesion percentage for each part of the articular surface=lesion length/total length of the weight-bearing articular surface×100%.
The lesion percentage for articular surface of the knee joint=total lesion length/total length of the articular surface×100%.

SMILES: O=c1c(-c2ccc(O[C@@H]3O[C@H](CO)[C@@H](O)[C@H](O)[C@H]3O)cc2)coc2cc(O)cc(O)c12 [HDA, 3-[4-(β-D-glucopyranosyl)-benzyl]5,7-dihydro-4H-1-benzopyran-4-one (4′,5,7-trihydroxylisoflavone-4′-D-glucoside)]
- ER-α positive cells in the articular cartilage, micrograph in words ([1]; sophoricoside 10 mg/kg/day): ER-α positive cells within the superficial layer of articular cartilage were much less
- ER-α positive cells in the articular cartilage, micrograph in words ([1]; sophoricoside 20 mg/kg/day): ER-α positive cells within the superficial layer of articular cartilage were much less
- ER-α positive cells in the articular cartilage, micrograph in words ([1]; sophoricoside 80 mg/kg/day): more than the OVX group and similar to normal articular cartilage
- positive ratio for ER-α expression in the articular chondrocytes, Total ([1]; sophoricoside 10 mg/kg/day): 49.520 ± 1.815^□□ %
- positive ratio for ER-α expression in the articular chondrocytes, Total ([1]; sophoricoside 20 mg/kg/day): 58.624 ± 1.707**^□□ %
- positive ratio for ER-α expression in the articular chondrocytes, Total ([1]; sophoricoside 40 mg/kg/day): 65.074 ± 1.306**^□□ %
- positive ratio for ER-α expression in the articular chondrocytes, Total ([1]; sophoricoside 80 mg/kg/day): 77.730 ± 1.125**^□□ %
- Final body weight ([2]; sophoricoside 10 mg/kg/day): 370.9 ± 5.7 g
- Final body weight ([2]; sophoricoside 20 mg/kg/day): 376.2 ± 6.5 g
- Final body weight ([2]; sophoricoside 40 mg/kg/day): 372.5 ± 6.8 g
- Final body weight ([2]; sophoricoside 80 mg/kg/day): 362.8 ± 3.4 g
- articular cartilage degeneration resulted from ovariectomy, in words ([3]; sophoricoside 10 mg/kg/day): ameliorated by the interventions other than HDA10 and HDA20
- articular cartilage degeneration resulted from ovariectomy, in words ([3]; sophoricoside 20 mg/kg/day): ameliorated by the interventions other than HDA10 and HDA20
- articular cartilage degeneration resulted from ovariectomy, in words ([3]; sophoricoside 40 mg/kg/day): effective but not able to completely reverse the degeneration
- articular cartilage degeneration resulted from ovariectomy, in words ([3]; sophoricoside 80 mg/kg/day): significantly more effective than OVX
- lesion percentage for the articular surface, total ([3]; sophoricoside 10 mg/kg/day): 7.785 ± 0.547^□□ %
- lesion percentage for the articular surface, total ([3]; sophoricoside 20 mg/kg/day): 6.622 ± 0.366^□□ %
- lesion percentage for the articular surface, total ([3]; sophoricoside 40 mg/kg/day): 5.617 ± 0.264*^□□ %
- lesion percentage for the articular surface, total ([3]; sophoricoside 80 mg/kg/day): 4.808 ± 0.603 %
